Source: patent US8927580B2, “Thiosemicarbazone compounds and use in the treatment of cancer” (Oncochel Therapeutics LLC, priority 2010, dated 2015)

Tests used:
[1] = system: SK-N-MC neuroepithelioma cell line; assay: MTT anti-proliferative assay in SK-N-MC cells; assay type: cell-based, human; settings: Homo sapiens, 72 h at 37° C., mean±SD (3 experiments)
Description: The cells were maintained in minimum essential media (MEM; Invitrogen, CA, USA) which contained 10% fetal calf serum (FCS; JRH Biosciences, Kansas, USA), 1% non-essential amino acids (Gibco, Victoria, Australia), 1% penicillin/streptomycin/glutamine (Gibco, VIC, Australia) and fungizone ([…]; Squibb Pharmaceuticals, Montreal, Canada).
The ability of the compounds to inhibit cellular proliferation was assessed initially in SK-N-MC cells by the MTT assay.
Table 1. […] Cells were seed and allowed to attach to wells for 24 h and then incubated for 72 h at 37° C. with control medium or the chelators.

[2] = system: SK-N-MC neuroepithelioma cells; assay: Iron efflux assay (59Fe release from pre-labeled cells); assay type: cell-based, human; settings: 25 μM chelator, 3 h at 37° C.
Description: The culture dishes were then placed on ice, the supernatant containing excess ^59Fe-Tf was aspirated and the cells washed 4 times with ice-cold PBS. […] After 3 h the culture dishes were again placed on ice, the media was collected in counting tubes and this provided a measurement of released ^59Fe. Ice-cold PBS (1 mL) was added to plates containing cells and cells were scraped from the plastic surface using a Teflon spatula and also collected in counting tubes. These tubes represent the intracellular ^59Fe content. Results are expressed as total ^59Fe released as a percentage of total ^59Fe present. Radioactivity was measured using a Wallac Wizard 3″ Gamma Counter (PerkinElmer, MA, USA).

[3] = system: SK-N-MC neuroepithelioma cells; assay: Iron uptake assay (59Fe uptake from 59Fe-transferrin); assay type: cell-based, human; settings: 25 μM chelator, 3 h at 37° C., 59Fe-Tf
Description: Cells were cultured in the same way as for the iron efflux experiments. […] At the end of the incubation the culture dishes were placed on ice, the media aspirated, and the cells washed 4 times with ice cold PBS. Protease (1 mL; 1 mg/mL; Sigma-Aldrich, NSW, Australia) solution was added to each plate and allowed to incubate on ice for 30 min. This facilitated the removal of membrane bound ^59Fe-Tf. Cells were then scraped from the plastic surface using a Teflon spatula and collected in Eppendorf tubes. These were centrifuged at 10000 rpm and 4° C. for 3 min. The supernatant was then transferred into counting tubes and the cell pellet resuspended in PBS before also being transferred into another set of counting tubes. Radioactivity was measured using a Wallac Wizard 3″ Gamma Counter (PerkinElmer, MA, USA). Results are expressed as average ^59Fe content of the cellular fraction as a percentage of the control value.

[4] = system: DMS-53 human lung carcinoma; assay: DMS-53 xenograft in nude mice, i.v. administration: tumour growth; assay type: in vivo, nude mice (BALBc nu/nu); settings: after 25 days, 4 or 6 mg/kg
[5] = system: DMS-53 human lung carcinoma; assay: DMS-53 xenograft in nude mice, oral gavage: tumour growth; assay type: in vivo, nude mice (BALBc nu/nu); settings: for Tumour weight: 21 days; for net tumour size (% of initial tumour volume): after 21 days
[6] = DMS-53 xenograft oral study: body and organ weights, haematology, biochemistry, histology; assay type: in vivo, nude mice (BALBc nu/nu); settings: for Alanine Aminotransferase (ALT) / Albumin / Alkaline Phosphatase (ALP) / Cholesterol / Haematocrit (HCT) / Haemoglobin (HGB) / Platelets / Serum Iron / Total Iron-Binding Capacity (TIBC) / Triglyceride / Unsaturated Iron-Binding Capacity (UIBC) / White Blood Cell (WBC): oral gavage 21 days; for Red Blood Cell (RBC): oral gavage for 21 days, 3 days/week; for Body weight (% initial) / Brain weight / Heart weight / Kidney weight / Liver weight / Lung weight / Spleen weight: oral

SMILES: CCN(C)C(=S)NN=C(c1ccccn1)c1ccccn1 [Dp4e4mT, di-2-pyridylketone 4-ethyl-4-methyl-3-thiosemicarbazone]
- IC50 [1]: 4.1 nM
- cellular 59Fe mobilised (59Fe released as percentage of total 59Fe) [2]: 38%
- cellular 59Fe uptake (% of the control) [3]: 12%
- net tumour size (% of the initial tumour volume) [4]: 120-122%
- Tumour weight ([5]; 2.5 mg/kg): 0.63 ± 0.17 g
- Tumour weight ([5]; 5 mg/kg): 0.89 ± 0.14 g
- Tumour weight ([5]; 7.5 mg/kg): 0.60 ± 0.15 g
- net tumour size (% of initial tumour volume) ([5]; 7.5 mg/kg): 404%
- net tumour size (% of initial tumour volume) ([5]; 10 mg/kg): 284%
- Alanine Aminotransferase (ALT) ([6]; 2.5 mg/kg): 73.1 U/L
- Albumin ([6]; 2.5 mg/kg): 31.3 g/L
- Alkaline Phosphatase (ALP) ([6]; 2.5 mg/kg): 85.7 U/L
- Cholesterol ([6]; 2.5 mg/kg): 2.44 mmol/L
- Haematocrit (HCT) ([6]; 2.5 mg/kg): 44%
- Haemoglobin (HGB) ([6]; 2.5 mg/kg): 148 g/L
- Platelets ([6]; 2.5 mg/kg): 1047 10^9/L
- Serum Iron ([6]; 2.5 mg/kg): 25.5 µmol/L
- Total Iron-Binding Capacity (TIBC) ([6]; 2.5 mg/kg): 56.7 µmol/L
- Triglyceride ([6]; 2.5 mg/kg): 1.00 mmol/L
- Unsaturated Iron-Binding Capacity (UIBC) ([6]; 2.5 mg/kg): 57.9 µmol/L
- White Blood Cell (WBC) ([6]; 2.5 mg/kg): 2.68 10^9/L
- Alanine Aminotransferase (ALT) ([6]; 5 mg/kg): 44.9 U/L
- Albumin ([6]; 5 mg/kg): 30.4 g/L
- Alkaline Phosphatase (ALP) ([6]; 5 mg/kg): 61.7 U/L
- Cholesterol ([6]; 5 mg/kg): 2.63 mmol/L
- Haematocrit (HCT) ([6]; 5 mg/kg): 43%
- Haemoglobin (HGB) ([6]; 5 mg/kg): 143 g/L
- Platelets ([6]; 5 mg/kg): 973 10^9/L
- Serum Iron ([6]; 5 mg/kg): 31.0 µmol/L
- Total Iron-Binding Capacity (TIBC) ([6]; 5 mg/kg): 53.1 µmol/L
- Triglyceride ([6]; 5 mg/kg): 0.57 mmol/L
- Unsaturated Iron-Binding Capacity (UIBC) ([6]; 5 mg/kg): 66.9 µmol/L
- White Blood Cell (WBC) ([6]; 5 mg/kg): 1.80 10^9/L
- Alanine Aminotransferase (ALT) ([6]; 7.5 mg/kg): 57.2 U/L
- Albumin ([6]; 7.5 mg/kg): 31.3 g/L
- Alkaline Phosphatase (ALP) ([6]; 7.5 mg/kg): 87.2 U/L
- Cholesterol ([6]; 7.5 mg/kg): 2.78 mmol/L
- Haematocrit (HCT) ([6]; 7.5 mg/kg): 45%
- Haemoglobin (HGB) ([6]; 7.5 mg/kg): 151 g/L
- Platelets ([6]; 7.5 mg/kg): 834 10^9/L
- Serum Iron ([6]; 7.5 mg/kg): 32.8 µmol/L
- Total Iron-Binding Capacity (TIBC) ([6]; 7.5 mg/kg): 56.8 µmol/L
- Triglyceride ([6]; 7.5 mg/kg): 0.67 mmol/L
- Unsaturated Iron-Binding Capacity (UIBC) ([6]; 7.5 mg/kg): 64.9 µmol/L
- White Blood Cell (WBC) ([6]; 7.5 mg/kg): 3.08 10^9/L
- Alanine Aminotransferase (ALT) ([6]; 10 mg/kg): 63.4 U/L
- Albumin ([6]; 10 mg/kg): 29.3 g/L
- Alkaline Phosphatase (ALP) ([6]; 10 mg/kg): 89.5 U/L
- Cholesterol ([6]; 10 mg/kg): 2.46 mmol/L
- Haematocrit (HCT) ([6]; 10 mg/kg): 44%
- Haemoglobin (HGB) ([6]; 10 mg/kg): 142 g/L
- Platelets ([6]; 10 mg/kg): 917 10^9/L
- Serum Iron ([6]; 10 mg/kg): 21.2 µmol/L
- Total Iron-Binding Capacity (TIBC) ([6]; 10 mg/kg): 60.2 µmol/L
- Triglyceride ([6]; 10 mg/kg): 0.94 mmol/L
- Unsaturated Iron-Binding Capacity (UIBC) ([6]; 10 mg/kg): 50.1 µmol/L
- White Blood Cell (WBC) ([6]; 10 mg/kg): 3.27 10^9/L
- Red Blood Cell (RBC) ([6]; 2.5 mg/kg): 10.55 10^12/L
- Red Blood Cell (RBC) ([6]; 5 mg/kg): 10.26 10^12/L
- Red Blood Cell (RBC) ([6]; 7.5 mg/kg): 10.85 10^12/L
- Red Blood Cell (RBC) ([6]; 10 mg/kg): 10.18 10^12/L
- Body weight (% initial) ([6]; 2.5 mg/kg): 94.1 ± 1.3 % initial
- Brain weight ([6]; 2.5 mg/kg): 0.372 ± 0.006 g
- Heart weight ([6]; 2.5 mg/kg): 0.078 ± 0.002 g
- Kidney weight ([6]; 2.5 mg/kg): 0.194 ± 0.005 g
- Liver weight ([6]; 2.5 mg/kg): 0.87 ± 0.02 g
- Lung weight ([6]; 2.5 mg/kg): 0.121 ± 0.005 g
- Spleen weight ([6]; 2.5 mg/kg): 0.075 ± 0.004 g
- Body weight (% initial) ([6]; 5 mg/kg): 91.6 ± 2.4 % initial
- Brain weight ([6]; 5 mg/kg): 0.367 ± 0.007 g
- Heart weight ([6]; 5 mg/kg): 0.078 ± 0.002 g
- Kidney weight ([6]; 5 mg/kg): 0.187 ± 0.006 g
- Liver weight ([6]; 5 mg/kg): 0.77 ± 0.02 g
- Lung weight ([6]; 5 mg/kg): 0.117 ± 0.003 g
- Spleen weight ([6]; 5 mg/kg): 0.075 ± 0.004 g
- Body weight (% initial) ([6]; 7.5 mg/kg): 91.6 ± 2.2 % initial
- Brain weight ([6]; 7.5 mg/kg): 0.356 ± 0.007 g
- Heart weight ([6]; 7.5 mg/kg): 0.092 ± 0.005 g
- Kidney weight ([6]; 7.5 mg/kg): 0.193 ± 0.008 g
- Liver weight ([6]; 7.5 mg/kg): 0.83 ± 0.03 g
- Lung weight ([6]; 7.5 mg/kg): 0.119 ± 0.004 g
- Spleen weight ([6]; 7.5 mg/kg): 0.061 ± 0.009 g
